Assay results as given in patent US20100105768A1, “MOLD-INHIBITING METHOD AND COMPOSITION” (priority 2008, published 2010).

Experiments:
[1] = tested on: A. niger and P. citrinum; assay: Visual mold growth rating on gypsum cuboids placed on inoculated Sabouraud's Dextrose Agar (Example 2); type: cell-based; conditions: for Visual evaluation Week 1 / Visual evaluation Week 2 / Visual evaluation Week 3 / Visual evaluation Week 4: 26° C., 70% relative humidity
Excerpt: Gypsum cuboids (30×40×25 mm^3) were made with the addition of the following formulations: • Sodium dehydroacetic acid (Na-DHA): 2500 ppm and 5000 ppm. • Carboquat® 250T ^3: 2500 ppm and 5000 ppm. • Carboquat® 250T/DHA 10:4 (wt./wt.): 2500 ppm and 5000 ppm. • ^3 Carboquat® 250T is an essentially aqueous solution containing approx. 50% of a mixture of carbonate and bicarbonate of didecyldimethylammonium. Carboquat® 250T is available from Lonza Inc., Allendale N.J.
Glass containers with Sabouraud's Dextrose Agar (SDA) on the bottom were prepared. Freshly-made spore suspensions of A. niger and P. citrinum were spread on the surface of SDA. The gypsum cuboids were air-dried and then placed on the top of the inoculated SDA. The containers were covered by aluminum foil and placed in an incubator with pre-set temperature of 26° C. and relative humidity of 70%. The test was completed at 4 weeks. Visual observation of mold growth on the gypsum cuboids was recorded weekly using the same rating system as in Example 1.

[2] = tested on: mold/stain fungi; assay: Dip treated fresh cut white pine blocks in sealed bags, visual mold and stain growth rating (Example 5); type: cell-based; conditions: 1% dip solution; for Visual evaluation Week 1 / Visual evaluation Week 2 / Visual evaluation Week 3 / Visual evaluation Week 4 / Visual evaluation Week 5 / Visual evaluation Week 6 / Visual evaluation Week 8: one minute, white pine blocks, no inoculation; for Efficacy against mold/stain fungi (in words): 8 weeks
Excerpt: Fresh cut white pine blocks (7.6×6.35×3.8 cm^3) were dipped in the prepared test formulation for one minute. The individual dipped wood block was placed in a plastic sandwich bag and the plastic bag was sealed to retain the moisture of the test wood blocks. No mold or stain fungi were inoculated on the test blocks. […] The test was completed in 8 weeks.

SMILES | Visual evaluation Week 1 ([1]; 2500 ppm in gypsum cuboid) | Visual evaluation Week 2 ([1]; 2500 ppm in gypsum cuboid) | Visual evaluation Week 3 ([1]; 2500 ppm in gypsum cuboid) | Visual evaluation Week 4 ([1]; 2500 ppm in gypsum cuboid) | Mold growth on gypsum cuboids (in words) ([1]; 5000 ppm) | Visual evaluation Week 1 ([1]; 5000 ppm in gypsum cuboid) | Visual evaluation Week 2 ([1]; 5000 ppm in gypsum cuboid) | Visual evaluation Week 3 ([1]; 5000 ppm in gypsum cuboid) | Visual evaluation Week 4 ([1]; 5000 ppm in gypsum cuboid) | Visual evaluation Week 1 [2] | Visual evaluation Week 2 [2] | Visual evaluation Week 3 [2] | Visual evaluation Week 4 [2] | Visual evaluation Week 5 [2] | Visual evaluation Week 6 [2] | Visual evaluation Week 8 [2] | Efficacy against mold/stain fungi (in words) [2]
CC(=O)c1c([O-])cc(C)oc1=O.[Na+] [Na-DHA, Sodium dehydroacetic acid] | 0 | 2 (Medium mold growth (6-25% mold coverage)) | 3 (Heavy mold growth (26-50% mold coverage)) | 3 (Heavy mold growth (26-50% mold coverage)) | no mold growth | 0 | 0 | 0 | 0 | 0 | 0 | 0 | 0 | 1 (Slight mold growth (<5% mold coverage)) | 1 (Slight mold growth (<5% mold coverage)) | 2 (Medium mold growth (6-25% mold coverage)) | strong efficacy
O=C([O-])c1ccccc1.[Na+] [Na-Benzoate] |  |  |  |  |  |  |  |  |  | 2 (Medium mold growth (6-25% mold coverage)) | 4 (Severe mold growth (>50% mold coverage)) | 4 (Severe mold growth (>50% mold coverage)) | 4 (Severe mold growth (>50% mold coverage)) | 4 (Severe mold growth (>50% mold coverage)) | 4 (Severe mold growth (>50% mold coverage)) | 4 (Severe mold growth (>50% mold coverage)) | no efficacy
C/C=C/C=C/C(=O)[O-].[Na+] [Na-Sorbate] |  |  |  |  |  |  |  |  |  | 2 (Medium mold growth (6-25% mold coverage)) | 4 (Severe mold growth (>50% mold coverage)) | 4 (Severe mold growth (>50% mold coverage)) | 4 (Severe mold growth (>50% mold coverage)) | 4 (Severe mold growth (>50% mold coverage)) | 4 (Severe mold growth (>50% mold coverage)) | 4 (Severe mold growth (>50% mold coverage)) | no efficacy
